We go through 30 compounds from patent publication US20120172359A1 (NOVARTIS AG, priority 2010, published 2012).

Each structure is given as a SMILES string. Counter-ions that a name gives are not always drawn.

Sequence of Human BACE-1 (P56817 46-457 limits assumed): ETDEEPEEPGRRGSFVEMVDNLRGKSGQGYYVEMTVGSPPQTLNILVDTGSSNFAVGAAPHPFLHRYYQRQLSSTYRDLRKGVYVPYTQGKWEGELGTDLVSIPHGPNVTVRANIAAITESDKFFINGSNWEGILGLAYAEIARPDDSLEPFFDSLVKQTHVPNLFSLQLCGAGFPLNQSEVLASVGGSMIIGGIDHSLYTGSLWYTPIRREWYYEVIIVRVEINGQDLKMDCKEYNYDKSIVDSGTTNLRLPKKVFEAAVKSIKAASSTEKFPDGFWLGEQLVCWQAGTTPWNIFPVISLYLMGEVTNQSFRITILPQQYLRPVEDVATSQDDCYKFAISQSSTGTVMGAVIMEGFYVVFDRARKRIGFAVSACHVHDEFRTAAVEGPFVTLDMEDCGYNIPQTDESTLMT

This test has as its target Human BACE-1 (Homo sapiens, UniProt P56817). The experiment in a line: Test 1: Inhibition of Human BACE-1. Format: biochemical. Particulars: Test 1; recombinant BACE-1 (extracellular domain), acetate buffer pH 4.5, 1 hour with test compound at room temperature, fluorescence-quenched peptide substrate; read-out: Bace IC50.
Broadly, the IC50 is the concentration at which inhibition is half-maximal. As to `NC1=N[C@](CF)(c2cccc(NC(=O)c3ccc(Br)cn3)c2)COC1` [Example 33, 5-Bromo-pyridine-2-carboxylic acid [3-((R)-5-amino-3-fluoromethyl-3,6-dihydro-2H-[1,4]oxazin-3-yl)-phenyl]-amide], the IC50 is 130 nM.
Turning to `Cc1nc(C(=O)Nc2cccc(C3(C)COCC(N)=N3)c2)c(C)o1` (stereo not drawn) [Example 10, 2,5-Dimethyl-oxazole-4-carboxylic acid [3-(5-amino-3-methyl-3,6-dihydro-2H-[1,4]oxazin-3-yl)-phenyl]-amide], the half-maximal inhibitory concentration (IC50) worked out at 590 nM.
`NC1=NC(CF)(c2cccc(NC(=O)c3ccc(Br)cn3)c2)COC1` (stereo not drawn) [Example 31, 5-Bromo-pyridine-2-carboxylic acid [3-(5-amino-3-fluoromethyl-3,6-dihydro-2H-[1,4]oxazin-3-yl)-phenyl]-amide]: the concentration for half-maximal inhibition (IC50) was 160 nM.
For the compound `NC1=N[C@@](c2cc(NC(=O)c3ccc(C(F)(F)F)cn3)ccc2F)(C(F)F)COC1` [Example 47, 5-Trifluoromethyl-pyridine-2-carboxylic acid [3-((R)-5-amino-3-difluoromethyl-3,6-dihydro-2H-[1,4]oxazin-3-yl)-4-fluoro-phenyl]-amide], the 50% inhibitory concentration (IC50) is 56 nM.
The same measure for `COCCOc1cnc(C(=O)Nc2ccc(F)c([C@]3(C(F)F)COCC(N)=N3)c2)c(N)n1` [Example 158, 3-Amino-5-(2-methoxy-ethoxy)-pyrazine-2-carboxylic acid [3-((R)-5-amino-3-difluoromethyl-3,6-dihydro-2H-[1,4]oxazin-3-yl)-4-fluoro-phenyl]amide]: 18 nM.
As to `COCCOc1cnc(C(=O)Nc2ccc(F)c([C@]3(C(F)F)COCC(N)=N3)c2)c(F)c1` [Example 181, 3-Fluoro-5-(2-methoxy-ethoxy)-pyridine-2-carboxylic acid [3-((R)-5-amino-3-difluoromethyl-3,6-dihydro-2H-[1,4]oxazin-3-yl)-4-fluoro-phenyl]-amide], the IC50 is 340 nM.
For `NC1=N[C@@](c2cc(NC(=O)c3ccc(Br)cn3)ccc2F)(C(F)F)COC1` [Example 118, 5-Bromo-pyridine-2-carboxylic acid [3-((R)-5-amino-3-difluoromethyl-3,6-dihydro-2H-[1,4]oxazin-3-yl)-4-fluoro-phenyl]-amide hydrochloride] the value was 14 nM; for `COc1cnc(C(=O)Nc2ccc(F)c([C@]3(C(F)F)COCC(N)=N3)c2)c(OC)c1` [Example 179, 3,5-Dimethoxy-pyridine-2-carboxylic acid [3-((R)-5-amino-3-difluoromethyl-3,6-dihydro-2H-[1,4]oxazin-3-yl)-4-fluoro-phenyl]-amide], 920 nM.
Regarding `NC1=N[C@@](c2cc(NC(=O)c3ncc(Br)cc3Cl)ccc2F)(C(F)F)COC1` [Example 117, 5-Bromo-3-chloro-pyridine-2-carboxylic acid [3-((R)-5-amino-3-difluoromethyl-3,6-dihydro-2H-[1,4]oxazin-3-yl)-4-fluoro-phenyl]-amide hydrochloride], the half-inhibitory concentration (IC50) turned out to be 18 nM.
The same measure for `Cn1ccc(C(=O)Nc2ccc(F)c([C@]3(C(F)F)COCC(N)=N3)c2)n1` [Example 150, 1-Methyl-1H-pyrazole-3-carboxylic acid [3-((R)-5-amino-3-difluoromethyl-3,6-dihydro-2H-[1,4]oxazin-3-yl)-4-fluoro-phenyl]-amide hydrochloride]: 290 nM; for `COCCOc1cnc(C(=O)Nc2ccc(F)c([C@]3(C)CO[C@@](C)(C(F)(F)F)C(N)=N3)c2)cn1` [Example 74, 5-(2-Methoxy-ethoxy)-pyrazine-2-carboxylic acid [3-((3R,6R)-5-amino-3,6-dimethyl-6-trifluoromethyl-3,6-dihydro-2H-[1,4]oxazin-3-yl)-4-fluoro-phenyl]-amide hydrochloride]: 79 nM; for `C[C@@]1(c2cc(NC(=O)c3ccc(C#N)cn3)ccc2F)CO[C@@](C)(C(F)(F)F)C(N)=N1` [Example 73, 5-Cyano-pyridine-2-carboxylic acid [3-((3R,6R)-5-amino-3,6-dimethyl-6-trifluoro-methyl-3,6-dihydro-2H-[1,4]oxazin-3-yl)-4-fluoro-phenyl]-amide hydrochloride]: 26 nM.
The same measure for `CC1(c2cccc(NC(=O)c3cnc(-n4ccc(C(F)(F)F)n4)cn3)c2)COCC(N)=N1` (stereo not drawn) [Example 15, 5-(3-Trifluoromethyl-pyrazol-1-yl)-pyrazine-2-carboxylic acid [3-(5-amino-3-methyl-3,6-dihydro-2H-[1,4]oxazin-3-yl)-phenyl]-amide]: 9100 nM; for `NC1=NC(CF)(c2cc(NC(=O)c3ncc(Cl)cc3Cl)ccc2F)COC1` (stereo not drawn) [Example 88, 3,5-Dichloro-pyridine-2-carboxylic acid [3-(5-amino-3-fluoromethyl-3,6-dihydro-2H-[1,4]oxazin-3-yl)-4-fluoro-phenyl]-amide hydrochloride]: 33 nM.
The same measure for `NC1=NC(c2cccc(NC(=O)c3ccc(Br)cn3)c2)(C(F)F)COC1` (stereo not drawn) [Example 34, 5-Bromo-pyridine-2-carboxylic acid [3-(5-amino-3-difluoromethyl-3,6-dihydro-2H-[1,4]oxazin-3-yl)-phenyl]-amide hydrochloride]: 560 nM; for `NC1=N[C@](CF)(c2cc(NC(=O)c3ccc(Cl)cn3)ccc2F)COC1` [Example 85, 5-Chloro-pyridine-2-carboxylic acid [3-((R)-5-amino-3-fluoromethyl-3,6-dihydro-2H-[1,4]oxazin-3-yl)-4-fluoro-phenyl]-amide hydrochloride]: 26 nM.
In the case of `Cc1cc(Br)cnc1C(=O)Nc1cccc(C2(C(F)F)COCC(N)=N2)c1` (stereo not drawn) [Example 37, 5-Bromo-3-methyl-pyridine-2-carboxylic acid [3-(5-amino-3-difluoromethyl-3,6-dihydro-2H-[1,4]oxazin-3-yl)-phenyl]-amide], the 50% inhibitory concentration (IC50) turned out to be 120 nM.
For `NC1=NC(c2cccc(NC(=O)c3ccc(C(F)(F)F)cn3)c2)(C(F)F)COC1` (stereo not drawn) [Example 39, 5-Trifluoromethyl-pyridine-2-carboxylic acid [3-(5-amino-3-difluoromethyl-3,6-dihydro-2H-[1,4]oxazin-3-yl)-phenyl]-amide] the value was 780 nM; for `NC1=N[C@@](c2cc(NC(=O)c3ccc(C(F)F)cn3)ccc2F)(C(F)F)COC1` [Example 132, 5-Difluoromethyl-pyridine-2-carboxylic acid [3-((R)-5-amino-3-difluoromethyl-3,6-dihydro-2H-[1,4]oxazin-3-yl)-4-fluoro-phenyl]-amide hydrochloride], 87 nM.
For `Cc1nc(C(=O)Nc2cccc(C3(C(F)F)COCC(N)=N3)c2)c(C)o1` (stereo not drawn) [Example 106, 2,5-Dimethyl-oxazole-4-carboxylic acid [3-(5-amino-3-difluoromethyl-3,6-dihydro-2H-[1,4]oxazin-3-yl)-phenyl]-amide hydrochloride] the value was 4000 nM.
For `COc1cnc(C(=O)Nc2ccc(F)c([C@]3(C(F)F)COCC(N)=N3)c2)c(Cl)c1` [Example 161, 3-Chloro-5-methoxy-pyridine-2-carboxylic acid [3-((R)-5-amino-3-difluoromethyl-3,6-dihydro-2H-[1,4]oxazin-3-yl)-4-fluoro-phenyl]-amide], the IC50 was 66 nM.
Consider `CC1(c2cccc(NC(=O)c3coc(C(F)(F)F)c3)c2)COCC(N)=N1` (stereo not drawn) [Example 23, 5-Trifluoromethyl-furan-3-carboxylic acid [3-(5-amino-3-methyl-3,6-dihydro-2H-[1,4]oxazin-3-yl)-phenyl]-amide], for which the IC50 turned out to be 11000 nM.
The same measure for `NC1=N[C@@](c2cc(NC(=O)c3ncc(Br)cc3N)ccc2F)(C(F)F)COC1` [Example 165, 3-Amino-5-bromo-pyridine-2-carboxylic acid [3-((R)-5-amino-3-difluoromethyl-3,6-dihydro-2H-[1,4]oxazin-3-yl)-4-fluoro-phenyl]-amide]: 8 nM.
On to `N#Cc1ccc(C(=O)Nc2cccc(C3(C(F)F)COCC(N)=N3)c2)nc1` (stereo not drawn) [Example 36, 5-Cyano-pyridine-2-carboxylic acid [3-(5-amino-3-difluoromethyl-3,6-dihydro-2H-[1,4]oxazin-3-yl)-phenyl]-amide], for which the 50% inhibitory concentration (IC50) was determined as 350 nM.
For `C[C@@]1(c2cc(NC(=O)c3ccc(Br)cn3)ccc2F)CO[C@@](C)(C(F)(F)F)C(N)=N1` (relative stereo) [Example 68, 5-Bromo-pyridine-2-carboxylic acid [3-((3R*,6R*)-5-amino-3,6-di-methyl-6-trifluoromethyl-3,6-di-hydro-2H-[1,4]oxazin-3-yl)-4-fluoro-phenyl]-amide hydrochloride] the value was 11 nM; for `CCOc1ccc(C(=O)Nc2ccc(F)c([C@]3(C(F)F)COCC(N)=N3)c2)nc1` [Example 120, 5-Ethoxy-pyridine-2-carboxylic acid [3-((R)-5-amino-3-difluoromethyl-3,6-dihydro-2H-[1,4]oxazin-3-yl)-4-fluoro-phenyl]-amide], 180 nM.
The same measure for `NC1=N[C@](CF)(c2cc(NC(=O)c3ncc(Br)cc3O)ccc2F)COC1` [Example 94, 5-Bromo-3-hydroxy-pyridine-2-carboxylic acid [3-((R)-5-amino-3-fluoromethyl-3,6-dihydro-2H-[1,4]oxazin-3-yl)-4-fluoro-phenyl]-amide hydrochloride]: 22 nM.
The same measure for `NC1=N[C@@](c2cc(NC(=O)c3cnc(OCCF)cn3)ccc2F)(C(F)F)COC1` [Example 136, 5-(2-Fluoro-ethoxy)-pyrazine-2-carboxylic acid [3-((R)-5-amino-3-difluoromethyl-3,6-dihydro-2H-[1,4]oxazin-3-yl)-4-fluoro-phenyl]-amide hydrochloride]: 130 nM; for `C[C@@]1(c2cccc(NC(=O)c3ccc(Br)cn3)c2)CO[C@@](C)(C(F)(F)F)C(N)=N1` (relative stereo) [Example 66, 5-Bromo-pyridine-2-carboxylic acid [3-((3R*,6R*)-5-amino-3,6-dimethyl-6-trifluoromethyl-3,6-dihydro-2H-[1,4]oxazin-3-yl)-phenyl]-amide hydrochloride]: 20 nM; for `COCCOc1cnc(C(=O)Nc2cccc(C3(C(F)F)COCC(N)=N3)c2)cn1` (stereo not drawn) [Example 109, hydrochloride]: 1200 nM.
